Reference: article PMC7710018, “Restoration of motor learning in a mouse model of Rett syndrome following long-term treatment with a novel small-molecule activator of TrkB” (Disease Models & Mechanisms, 2020)
Like-named read-outs stand apart in the source and are kept apart here.

How the values were obtained:
[1] = molecular target: T1, 5-HT1A (h) (Homo sapiens, UniProt P08908); assay: Cerep ExpresSProfile radioligand binding; settings: 10 micromolar, agonist radioligand
T1 construct: purchased Cerep (ExpresSProfile)
Experimental: (§1) To evaluate the relative binding specificity of LM22A-4 ([Massa et al., 2010]) and PTX-BD4-3, binding to a broad range of 55 pharmacologically relevant receptors, including numerous neurotransmitter and G-protein coupled receptors was assessed using standard radioligand competition binding assays (ExpressSProfile) performed by Cerep, Inc. (Seattle, WA, USA). In addition, ADME-Tox analysis was performed by Cerep, Inc. All experimental conditions are described on the Cerep website (www.cerep.fr).
(§2) Ligand % Inhibition of Control Specific […]
(§3) 48 Ca2+ channel (L, verapamil site) 0 ‐1.3 ‐0.7
(§4) (phenylalkylamine) (antagonist radioligand) […]
(§5) 51 Na+ channel (site 2) (antagonist radioligand) 0.6 11.7 6.1
(§6) 52 Cl‐ channel (GABA‐gated) (antagonist 2.7 ‐5.3 ‐1.3 […]
(§7) Table S1. In vitro binding assays. An ExpresSProfile screen of PTX-BD4-3 binding to a panel of pharmacologically relevant receptors was conducted by Cerep, Inc.
(§8) (Eurofins Panlabs, MO). The results are expressed as percent inhibition of control specific binding obtained in the presence of 10 micromolar PTX-BD4-3. In this assay, values below 50% indicate no specific binding of PTX-BD4-3. The assay was negative for PTX-BD4-3 binding to all of the 55 receptors in the screen.
(§9) (also on this page, place not known: 2B 5‐HT 3 5‐HT 5a 5‐HT 6 5‐HT 7 (agonis t VPAC 1 V 1 Ca 2+ K V SK Ca Na + Cl ‐ 5‐HT Disease Models & Mechanisms: doi:10.1242/dmm.044685: Supplementary information Disease Models & Mechanisms • Supplementary information)

[2] = molecular target: T2, 5-HT2A (h) (Homo sapiens, UniProt P28223); assay: Cerep ExpresSProfile radioligand binding; settings: 10 micromolar, antagonist radioligand
T2 construct: purchased Cerep (ExpresSProfile)
Experimental: as §1, §2, §3, §4, §5, §6, §7, §8, §9

[3] = molecular target: T3, A1 (h) (Homo sapiens, UniProt P30542); assay: Cerep ExpresSProfile radioligand binding; settings: 10 micromolar, agonist radioligand
T3 construct: purchased Cerep (ExpresSProfile)
T3 sequence (P30542 1-326): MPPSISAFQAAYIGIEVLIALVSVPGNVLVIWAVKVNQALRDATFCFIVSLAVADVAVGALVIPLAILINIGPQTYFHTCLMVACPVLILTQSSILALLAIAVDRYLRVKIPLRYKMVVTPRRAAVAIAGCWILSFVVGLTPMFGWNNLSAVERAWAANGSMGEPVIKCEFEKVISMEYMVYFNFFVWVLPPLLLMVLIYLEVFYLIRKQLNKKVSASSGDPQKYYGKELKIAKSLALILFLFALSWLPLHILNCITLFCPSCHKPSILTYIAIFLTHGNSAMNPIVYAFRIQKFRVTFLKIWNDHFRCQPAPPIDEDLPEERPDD
Experimental: as §1, §2, §3, §4, §5, §6, §7, §8, §9

[4] = molecular target: T4, A2A (h) (Homo sapiens, UniProt P29274); assay: Cerep ExpresSProfile radioligand binding; settings: 10 micromolar, agonist radioligand
T4 construct: purchased Cerep (ExpresSProfile)
Experimental: as §1, §2, §3, §4, §5, §6, §7, §8, §9

[5] = molecular target: T5, B2 (h) (Homo sapiens, UniProt P30411); assay: Cerep ExpresSProfile radioligand binding; settings: 10 micromolar, agonist radioligand
T5 construct: purchased Cerep (ExpresSProfile)
T5 sequence (P30411 1-391): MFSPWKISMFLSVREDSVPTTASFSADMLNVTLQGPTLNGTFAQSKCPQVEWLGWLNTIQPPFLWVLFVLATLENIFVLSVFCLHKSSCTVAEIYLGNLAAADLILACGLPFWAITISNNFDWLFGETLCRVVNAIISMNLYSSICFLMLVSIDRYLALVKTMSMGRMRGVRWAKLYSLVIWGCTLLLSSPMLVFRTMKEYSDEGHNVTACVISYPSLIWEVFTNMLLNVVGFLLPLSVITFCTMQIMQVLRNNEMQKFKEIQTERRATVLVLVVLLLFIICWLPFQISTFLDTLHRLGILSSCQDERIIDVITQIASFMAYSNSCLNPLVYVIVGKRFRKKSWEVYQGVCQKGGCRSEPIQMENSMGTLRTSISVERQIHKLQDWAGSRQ
Experimental: as §1, §2, §3, §4, §5, §6, §7, §8, §9

[6] = test system: BZD (central); assay: Cerep ExpresSProfile radioligand binding; settings: 10 micromolar; agonist radioligand
Experimental: as §1, §2, §3, §4, §5, §6, §7, §8, §9

[7] = molecular target: T6, D2S (h) (Homo sapiens, UniProt P14416); assay: Cerep ExpresSProfile radioligand binding; settings: 10 micromolar; antagonist radioligand; read-out: % Inhibition of Control Specific Binding 2nd
T6 construct: purchased Cerep (ExpresSProfile)
Experimental: as §1, §2, §3, §4, §5, §6, §7, §8, §9

[8] = molecular target: T7, EP4 (h) (Homo sapiens, UniProt P35408); assay: Cerep ExpresSProfile radioligand binding; settings: 10 micromolar, agonist radioligand
T7 construct: purchased Cerep (ExpresSProfile)
Experimental: as §1, §2, §3, §4, §5, §6, §7, §8, §9

[9] = test system: GABA (non-selective); assay: Cerep ExpresSProfile radioligand binding; settings: 10 micromolar; agonist radioligand
Experimental: as §1, §2, §3, §4, §5, §6, §7, §8, §9

[10] = molecular target: T8, GAL2 (h) (Homo sapiens, UniProt O43603); assay: Cerep ExpresSProfile radioligand binding; settings: 10 micromolar; agonist radioligand; read-out: % Inhibition of Control Specific Binding 2nd
T8 construct: purchased Cerep (ExpresSProfile)
Experimental: as §1, §2, §3, §4, §5, §6, §7, §8, §9

[11] = molecular target: T9, H1 (h) (Homo sapiens, UniProt P35367); assay: Cerep ExpresSProfile radioligand binding; settings: 10 micromolar, antagonist radioligand
T9 construct: purchased Cerep (ExpresSProfile)
Experimental: as §1, §2, §3, §4, §5, §6, §7, §8, §9

[12] = molecular target: T10, μ (MOP) (h) (Homo sapiens, UniProt P35372); assay: Cerep ExpresSProfile radioligand binding; settings: 10 micromolar; agonist radioligand; read-out: % Inhibition of Control Specific Binding 1st
T10 construct: purchased Cerep (ExpresSProfile)
Experimental: as §1, §2, §3, §4, §5, §6, §7, §8, §9

[13] = Body weight / tolerability on chronic intermittent dosing; format: in vivo; settings: 8 weeks
From the text: In light of evidence that deficits in BDNF expression and TrkB signaling contribute to neurological dysfunction in mouse models of RTT ([Katz, 2014]), we next examined whether or not chronic treatment of Mecp2 mutant mice with PTX-BD4-3 would ameliorate disease phenotypes. For these studies, we used heterozygous (Het) female Mecp2 mutants, which, unlike male null mice, model the somatic mosaicism for normal and mutant MeCP2 that characterizes the human disease ([Katz et al., 2012]). Animals were treated once every 3 days (5 mg/kg, i.p.), beginning at 16 weeks of age, and neurological phenotypes were assessed at various time points up to 8 weeks of dosing. All tests were performed 24 h after the last treatment. Phenotypic assessments included whole-body plethysmography to quantify apneic breathing, a core feature of respiratory dysfunction in RTT, as well as a motor test battery.
Figure S2. Repeated dosing with PTX-BD4-3 (5 mg/kg, q72 hrs) had no
effect on body weight in either Wt or Het mice.
Initial Week 2 Week 4 Week 6 Week 8
Body weight (g) Wt Saline Wt BD4‐3
Disease Models & Mechanisms: doi:10.1242/dmm.044685: Supplementary information
Disease Models & Mechanisms • Supplementary information […]

[14] = read-out: % Inhibition of Control Specific Binding 1st
[15] = read-out: % Inhibition of Control Specific Binding Mean
[16] = read-out: % Inhibition of Control Specific Binding 2nd

T9 sequence (P35367 whole entry): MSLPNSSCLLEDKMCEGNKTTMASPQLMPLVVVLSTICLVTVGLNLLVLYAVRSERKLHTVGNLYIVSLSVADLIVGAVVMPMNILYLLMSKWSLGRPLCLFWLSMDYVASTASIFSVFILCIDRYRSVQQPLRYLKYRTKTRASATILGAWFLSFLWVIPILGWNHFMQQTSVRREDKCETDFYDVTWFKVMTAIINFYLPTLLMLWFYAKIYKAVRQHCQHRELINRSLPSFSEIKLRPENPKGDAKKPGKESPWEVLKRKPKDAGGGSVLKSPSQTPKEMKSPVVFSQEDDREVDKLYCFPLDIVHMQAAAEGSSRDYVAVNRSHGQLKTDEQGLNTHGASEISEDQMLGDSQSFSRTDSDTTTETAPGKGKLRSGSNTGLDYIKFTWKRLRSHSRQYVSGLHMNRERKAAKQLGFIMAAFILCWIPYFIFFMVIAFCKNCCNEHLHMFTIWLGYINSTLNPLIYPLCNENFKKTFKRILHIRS
T7 sequence (P35408 whole entry): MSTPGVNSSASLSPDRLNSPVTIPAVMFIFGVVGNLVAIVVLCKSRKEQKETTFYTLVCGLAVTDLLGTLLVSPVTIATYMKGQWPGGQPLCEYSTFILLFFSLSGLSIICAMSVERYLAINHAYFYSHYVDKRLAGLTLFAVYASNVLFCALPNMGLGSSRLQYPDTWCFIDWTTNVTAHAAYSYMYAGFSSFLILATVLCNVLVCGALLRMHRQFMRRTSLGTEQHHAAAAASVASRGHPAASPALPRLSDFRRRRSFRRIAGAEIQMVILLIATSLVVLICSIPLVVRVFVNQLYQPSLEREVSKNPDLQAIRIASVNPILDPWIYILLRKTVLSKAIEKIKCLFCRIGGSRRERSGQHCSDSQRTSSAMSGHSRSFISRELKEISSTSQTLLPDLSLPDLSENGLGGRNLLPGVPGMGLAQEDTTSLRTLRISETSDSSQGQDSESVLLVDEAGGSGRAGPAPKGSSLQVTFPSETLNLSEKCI
T4 sequence (P29274 whole entry): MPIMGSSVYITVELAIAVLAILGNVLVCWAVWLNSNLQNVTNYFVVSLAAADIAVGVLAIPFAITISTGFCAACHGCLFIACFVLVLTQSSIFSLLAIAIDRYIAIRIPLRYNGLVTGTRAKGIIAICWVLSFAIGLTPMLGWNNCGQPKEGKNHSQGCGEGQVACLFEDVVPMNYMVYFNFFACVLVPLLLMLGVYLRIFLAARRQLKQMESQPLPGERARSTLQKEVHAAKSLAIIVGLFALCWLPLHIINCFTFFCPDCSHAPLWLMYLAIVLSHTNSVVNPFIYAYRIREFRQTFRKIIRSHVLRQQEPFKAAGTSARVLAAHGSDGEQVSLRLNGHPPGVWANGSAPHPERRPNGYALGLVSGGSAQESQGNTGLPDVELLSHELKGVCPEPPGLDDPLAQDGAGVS
T2 sequence (P28223 whole entry): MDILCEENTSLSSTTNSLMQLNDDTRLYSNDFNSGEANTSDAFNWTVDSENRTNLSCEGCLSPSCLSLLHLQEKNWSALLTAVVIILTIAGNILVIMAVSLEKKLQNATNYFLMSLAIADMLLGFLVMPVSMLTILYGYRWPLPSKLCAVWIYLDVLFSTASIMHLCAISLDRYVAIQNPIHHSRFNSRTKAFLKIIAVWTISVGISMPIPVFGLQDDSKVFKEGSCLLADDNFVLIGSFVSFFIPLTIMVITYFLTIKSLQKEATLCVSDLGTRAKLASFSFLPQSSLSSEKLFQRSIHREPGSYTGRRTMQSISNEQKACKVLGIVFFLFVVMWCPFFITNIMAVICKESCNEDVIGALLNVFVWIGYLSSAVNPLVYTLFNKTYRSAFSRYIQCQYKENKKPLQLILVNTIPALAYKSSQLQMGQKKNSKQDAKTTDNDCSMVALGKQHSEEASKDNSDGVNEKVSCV
T1 sequence (P08908 whole entry): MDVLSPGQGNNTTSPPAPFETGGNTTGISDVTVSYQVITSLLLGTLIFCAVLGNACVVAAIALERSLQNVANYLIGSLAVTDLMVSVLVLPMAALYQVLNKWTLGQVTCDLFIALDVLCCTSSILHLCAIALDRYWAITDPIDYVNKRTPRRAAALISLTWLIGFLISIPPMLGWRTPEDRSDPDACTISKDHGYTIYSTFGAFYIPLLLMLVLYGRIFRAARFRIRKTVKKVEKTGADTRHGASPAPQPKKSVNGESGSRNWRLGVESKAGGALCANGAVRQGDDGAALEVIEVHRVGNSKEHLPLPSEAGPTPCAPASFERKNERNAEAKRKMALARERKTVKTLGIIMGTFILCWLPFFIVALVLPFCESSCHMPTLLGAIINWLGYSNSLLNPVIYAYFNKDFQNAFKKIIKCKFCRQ
T6 sequence (P14416 1-414 isoform P14416-2): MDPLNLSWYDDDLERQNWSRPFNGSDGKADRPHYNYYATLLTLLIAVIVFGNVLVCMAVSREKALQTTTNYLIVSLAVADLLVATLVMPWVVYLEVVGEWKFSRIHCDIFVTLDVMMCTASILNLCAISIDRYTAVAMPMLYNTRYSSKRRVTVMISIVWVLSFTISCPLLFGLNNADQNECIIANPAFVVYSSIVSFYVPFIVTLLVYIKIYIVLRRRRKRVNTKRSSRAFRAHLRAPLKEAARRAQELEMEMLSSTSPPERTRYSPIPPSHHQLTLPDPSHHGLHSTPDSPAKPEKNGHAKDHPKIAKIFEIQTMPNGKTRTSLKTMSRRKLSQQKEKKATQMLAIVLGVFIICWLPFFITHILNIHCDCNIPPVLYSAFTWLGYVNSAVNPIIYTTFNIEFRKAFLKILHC
T8 sequence (O43603 whole entry): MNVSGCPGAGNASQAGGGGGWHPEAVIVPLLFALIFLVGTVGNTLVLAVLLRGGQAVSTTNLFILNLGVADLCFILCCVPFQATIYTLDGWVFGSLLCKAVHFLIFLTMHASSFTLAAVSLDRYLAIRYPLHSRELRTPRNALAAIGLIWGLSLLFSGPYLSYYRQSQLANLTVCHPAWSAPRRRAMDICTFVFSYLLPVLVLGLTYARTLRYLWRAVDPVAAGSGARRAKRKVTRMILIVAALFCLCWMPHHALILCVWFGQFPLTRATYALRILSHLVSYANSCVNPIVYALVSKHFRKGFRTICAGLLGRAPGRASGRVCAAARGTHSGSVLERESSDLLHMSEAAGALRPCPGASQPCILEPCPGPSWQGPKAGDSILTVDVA
T10 sequence (P35372 whole entry): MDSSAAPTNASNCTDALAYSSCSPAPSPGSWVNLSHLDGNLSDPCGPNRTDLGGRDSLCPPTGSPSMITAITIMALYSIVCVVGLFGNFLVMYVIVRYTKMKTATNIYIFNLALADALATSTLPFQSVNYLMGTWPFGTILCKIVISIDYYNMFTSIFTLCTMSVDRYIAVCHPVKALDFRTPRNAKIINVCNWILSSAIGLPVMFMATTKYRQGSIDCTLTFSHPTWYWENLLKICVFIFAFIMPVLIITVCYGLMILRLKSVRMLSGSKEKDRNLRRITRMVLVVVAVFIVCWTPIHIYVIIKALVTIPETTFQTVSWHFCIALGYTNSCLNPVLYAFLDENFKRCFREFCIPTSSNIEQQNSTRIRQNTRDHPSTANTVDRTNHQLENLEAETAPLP

`COCCN(C)C(=O)c1cc(C(=O)N(C)CCOC)cc(C(=O)N(C)CCOC)c1` [PTX-BD4-3, benzene-1,3,5-tricarboxylic acid tris-[(2-methoxy-ethyl)-methyl-amide]] gave an inhibition at 10 µM [1, 14] of 19.3%, an inhibition at 10 µM [1, 15] of 5% and an inhibition at 10 µM [2, 14] of 4.8%. It also gave an inhibition at 10 µM [2, 15] of 0%, an inhibition at 10 µM [3, 14] of 8.9% and an inhibition at 10 µM [3, 16] of 5.6%. For the same compound, the inhibition at 10 µM [3, 15] was 7.2%, the inhibition at 10 µM [4, 14] was 11.4% and the inhibition at 10 µM [4, 16] was 30.1%. The inhibition at 10 µM [4, 15] was 20.7%, the inhibition at 10 µM [5, 14] was 8.1% and the inhibition at 10 µM [5, 16] was 0.3%. The inhibition at 10 µM [5, 15] was 4.2%, the “% Inhibition of Control Specific Binding 1st” value [6] was 2.9% and the inhibition at 10 µM [7] was 2.4%. It also gave an inhibition at 10 µM [8, 14] of 9.5%, an inhibition at 10 µM [8, 16] of 10.4% and an inhibition at 10 µM [8, 15] of 9.9%. The “% Inhibition of Control Specific Binding 1st” value [9] was 16.5%, the “% Inhibition of Control Specific Binding 2nd” value [9] was 19.1% and the “% Inhibition of Control Specific Binding Mean” value [9] was 17.8%. The inhibition at 10 µM [10] was 6.3%, the inhibition at 10 µM [11, 14] was 5.8% and the inhibition at 10 µM [11, 16] was 5.2%. The inhibition at 10 µM [11, 15] was 5.5%, the inhibition at 10 µM [12] was 6.6% and the “tolerability of chronic intermittent dosing” value ([13]; 5 mg/kg i.p. q72 h) was “well tolerated”. The body weight ([13]; Het mice, 5 mg/kg q72 h, vs saline-treated Het littermates) was “unchanged”.
